# According to patent US20070123569A1, “THERAPEUTIC METHODS USING PROSTAGLANDIN EP4 AGONIST COMPONENTS” (ALLERGAN, INC., priority 2005, published 2007):
# Key:
# AGS cells = assay: Indomethacin-induced apoptosis of AGS gastric epithelial cells (flow cytometry); type: cell-based; conditions: FIG. 2
# Description: Studies similar to those described for Examples 38 to 40 were conducted on cultured human gastric epithelial cells. This cell line, designated as AGS, was purchased from ATCC. […] Prostaglandin EP4 agonist 1 was given at four different concentrations to separate samples of the cells in a serum-free medium. One hour later, indomethacin at 400 μM was added into the culture medium in three of the samples to induce apoptosis of the AGS cells. Twenty four (24) hours after the addition of indomethacin, the cells were collected and processed for flow cytometry analysis. Ten thousand (10,000) cells were sorted for each sample, and the percentage of apoptotic cells was calculated.
# IEC-18 cells = assay: Indomethacin-induced apoptosis of IEC-18 cells (flow cytometry); type: cell-based, rat; conditions: 24 h, FIG. 1
# Description: Rat ileum epithelial cells identified as IEC-18, were purchased from ATCC. The cells were seeded and cultured overnight. In three (3) series of tests, each of PGE2, prostaglandin EP4 agonist 1 and prostaglandin EP4 agonist prodrug 3 was given at one or two concentrations to separate samples of the cells in a serum-free medium. One hour later, the non-steroidal anti-inflammatory drug (NSAID) indomethacin at 100 μM was added into the culture medium to induce apoptosis of the IEC-18 cells. Twenty four (24) hours after the addition of indomethacin, the cells were collected and processed for flow cytometry analysis. Ten thousand (10,000) cells were sorted for each sample, and the percentage of apoptotic cells was calculated.
# gastric mucous cells = assay: BrdU immunostaining of stomach tissue sections from indomethacin-dosed mice; type: in vivo, mouse; conditions: given prior to indomethacin, FIG. 7
# Description: Each of prostagiandin EP4 agonist 1 and PGE 1 analog Misoprostol was given to C57BL/6 mice at two or three concentrations. Twenty four (24) hours and 30 minutes later, the NSAID indomethacin was given at 20 mg/kg to induce stomach lesions and stomach inflammation. Twenty four (24) hours after indomethacin dosing, the mice were sacrificed and the stomach lesions were scored histopathologically and by gross lesion count.
# BrdU immunostaining was performed on stomach tissue sections from mice treated with the prostaglandin EP4 agonist 1 and the PGE1 analog Misoprostol. Incorporation of BrdU label, as detected with positive BrdU immunostaining, is indicative of cell growth/regeneration. The abilities of prostaglandin EP4 agonist 1 and the PGE1 analog Misoprostol to regenerate gastric epithelial cells when given prior to indomethacin dosing were compared. The mean percentages of BrdU label incorporated cells in stomach tissue sections and the standard errors of the means from both treatments are shown in FIG. 7.
compound,measurement,setting,value
"COc1ccc2c(c1)c(CC(=O)O)c(C)n2C(=O)c1ccc(Cl)cc1 [Indomethacin, indomethacin, reference compound]",apoptosis induced by indomethacin itself,"AGS cells; indomethacin 400 μM, 24 h",about 30%
"CCCCC[C@H](O)/C=C/[C@H]1[C@H](O)CC(=O)[C@@H]1C/C=C\CCCC(=O)O [PGE2, prostaglandin E2, reference compound]",reduction of indomethacin-induced apoptosis,"IEC-18 cells; serum-free medium, indomethacin 100 μM added 1 h after compound",about 65%
CC1(C)C(=O)[C@H](C/C=C\CCCC(=O)O)[C@@H](/C=C/C(O)CCc2sc3ccccc3c2Cl)[C@@H]1O (stereo partly drawn) [prostaglandin EP4 agonist 1],"restoration of regenerative ability of gastric mucous cells, BrdU label (in words)",gastric mucous cells,significant restoration
same,restoration of regenerative ability of gastric mucous cells injured by indomethacin (BrdU label),gastric mucous cells; maximum dose employed,about 25%
same,apoptosis or cell death with the agonist alone (no indomethacin),AGS cells; serum-free medium,very little or substantially no apoptosis or cell death
same,effect on indomethacin-induced apoptosis (in words),IEC-18 cells; indomethacin 100 μM,reduced indomethacin-induced apoptosis significantly
